Experimental data reported in patent publication US20060105967A1, “Flavone derivatives as TNFalpha inhibitors or antagonists” (Advanced Gene Technology, Corp., priority 2004, published 2006).

Key:
[1] = tested on: rats with collagen-induced arthritis; experiment: Anti-inflammatory effect on rats with collagen-induced arthritis; assay type: in vivo, rat; conditions: for decreased percentage of edema: IP
Excerpt: SD rats of SPF grade were supplied from BioLasco. Prior to performing the study, the animals were accommodated for 4 days after being received. Weighing, blood sampling, measuring the paw volumes and other related records for each animal were established. The rats were immunized and boosted with bovine collagen II-EFA (Incomplete Freund's Adjuvant, from Sigma) to induce arthritis (CIA). The CIA rats were grouped into 6 groups and daily injected with the drug candidates (myricitrin and quercetin-3-D-glucoside respectively). Dexamethasone (0.2 mg) was used as a positive control and 5% ethanol as a negative control. Treatment period was 7 days. Body weight and paw volumes were measured and blood sampling were collected at day 0, 3, 6, 10 and 14.
Six days after the final dosing, all the animals were sacrificed. The affected hind limbs were removed for histological assessment. The parameters of body weights and paw volumes were measured and compared for before, during and after treatment with drug candidates.

[2] = target: T1, TNFα (Homo sapiens, UniProt P01375); experiment: L929 cell proliferation/cytotoxicity assay, TNFα activity assay; assay type: cell-based
T1 construct: purchased
T1 sequence (P01375 77-233 limits assumed, species assumed): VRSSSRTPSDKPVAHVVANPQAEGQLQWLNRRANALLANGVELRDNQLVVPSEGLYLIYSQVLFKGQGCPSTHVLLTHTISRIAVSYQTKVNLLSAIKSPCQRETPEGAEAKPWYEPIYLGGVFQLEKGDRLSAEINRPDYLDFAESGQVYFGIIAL
Protocol: (§1) L929 cells were cultured in Eagle's Minimal Essential Medium (MEM) containing 10% equine serum, 1% P/S and 1% non-essential amino acid. Confluent L929 cells were washed with 2 ml PBS (phosphate-buffered saline) solution and then trypsinized with 1 ml 1×trypsin, followed by resuspending in complete medium. Two hundred microliter of cell suspension was aspirated for cell density counting. […]. Add 100 μl of cell suspension to each well in 96-well flat-bottomed microtitre plates and incubated for 24 hrs in 5% CO2 atmosphere at 37° C. incubator.
Crude herbal extracts were resuspended in 1×PBS and sterilized with 0.22 μm filters. Varying concentrations of herbal extract were incubated for 1 hr with equal volume of commercial TNFα 0.2 ng/ml. Before the end of the 1 hr pre-incubation, removing the medium from the 24 hr incubated 96-well plate, and added a 50 μl fresh medium containing 4 μg/ml of Actinomycin D into the 96-well plate. Transferred the 50 μl of pre-incubated mixture of herbal extraction and TNFα to the 96-well plate with the medium containing Act D to give the final concentration of Act D (2 μg/ml), TNFα(0.1 ng/ml). […]
The same samples as those for TNFα activity assay were added to the 96-well plate with the medium containing Act D to give the final concentration of Act D 2 μg/ml. […] Read with ELISA (enzyme-linked immunosorbent assay) reader at O.D (optical density) 490/630 nm. […]

[3] = tested on: L929 cells; experiment: Cytotoxicity in L929 cells (XTT); assay type: cell-based; conditions: Act D 2 μg/ml, 24 hrs
Protocol: as §1
The same samples as those for TNFα activity assay were added to the 96-well plate with the medium containing Act D to give the final concentration of Act D 2 μg/ml. Mixed well by gently shaking and then incubated for 24 hrs in 5% CO2 atmosphere at 37° C. incubator. 50 μl XTT mixture (XTT−1: XTT−2=50:1) was added to each well, and incubated in a CO2 incubator for 4 hrs. Read with ELISA (enzyme-linked immunosorbent assay) reader at O.D (optical density) 490/630 nm. […]. Quercitrin and Myricitrin Identification (1) Thin-Layer Chromatography

[4] = CIA rats, 3rd day after treatment stopped (T4)
[5] = CIA rats, 7th day after treatment stopped (T5)

Compound | histopathological changes of joint ([1]; CIA rats treated (IP), hind limbs removed six days after final dosing) | decreased percentage of edema [1, 4] [%] | decreased percentage of edema [1, 5] [%] | decreased percentage of edema volumes for hind paws ([1]; CIA rats, daily injection (IP), treatment period / day 6 of treatment (T3), vs non-treatment paw volume) [%] | IC50 [2] [µM] | cell cytotoxicity [3]
O=c1c(O[C@@H]2O[C@H](CO)[C@@H](O)[C@H](O)[C@H]2O)c(-c2ccc(O)c(O)c2)oc2cc(O)cc(O)c12 [quercetin-3-D-glucoside] | proliferation of synovial ling cell and infiltration of lymphocytes was shown | 24.93 | 80.47 | 8.59 | 95.7 | –
C[C@@H]1O[C@@H](Oc2c(-c3ccc(O)c(O)c3)oc3cc(O)cc(O)c3c2=O)[C@H](O)[C@H](O)[C@H]1O [quercitrin] | – | – | – | – | 161 | without cell cytotoxicity
C[C@@H]1C[C@H]2[C@@H]3CCC4=CC(=O)C=C[C@]4(C)[C@@]3(F)[C@@H](O)C[C@]2(C)[C@@]1(O)C(=O)CO [dexamethasone, reference compound] | – | 28.21 | 29.97 | – | – | –
